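A five-concentration, 48-hour dose response in 96-well plates underlies each endpoint, interpolated linearly between surrounding concentrations. At the GI50, growth is halved. Definition used: TGI = concentration required for complete inhibition of growth.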
How the values were obtained:
Experiment in all cases: DTP human tumour cell line panel, 48 h
[1] = system: 786-0 renal
[2] = system: A498 renal
[3] = system: A549 NSCLC
[4] = system: ACHN renal
[5] = system: BT-549 breast
[6] = system: CAKI-1 renal
[7] = system: CCRF-CEM leukemia
[8] = system: COLO 205 colon
[9] = system: DU-145 prostate
[10] = system: EKVX NSCLC
[11] = system: HCC-2998 colon
[12] = system: HCT-116 colon
[13] = system: HCT-15 colon
[14] = system: HL-60(TB) leukemia
[15] = system: HOP-62 NSCLC
[16] = system: HOP-92 NSCLC
[17] = system: HS 578T breast
[18] = system: HT29 colon
[19] = system: IGROV1 ovarian
[20] = system: K-562 leukemia
[21] = system: KM12 colon
[22] = system: M14 melanoma
[23] = system: MALME-3M melanoma
[24] = system: MCF7 breast
[25] = system: MDA-MB-231 breast
[26] = system: MDA-MB-435
[27] = system: MOLT-4 leukemia
[28] = system: NCI-H226 lung
[29] = system: NCI-H23 lung
[30] = system: NCI-H460 lung
[31] = system: NCI-H522 lung
[32] = system: NCI/ADR-RES ovarian
[33] = system: OVCAR-3 ovarian
[34] = system: OVCAR-4 ovarian
[35] = system: OVCAR-5 ovarian
[36] = system: OVCAR-8 ovarian
[37] = system: PC-3 prostate
[38] = system: RPMI-8226 leukemia
[39] = system: RXF 393 renal
[40] = system: SF-268 CNS
[41] = system: SF-295 CNS
[42] = system: SF-539 CNS
[43] = system: SK-MEL-2 melanoma
[44] = system: SK-MEL-5 melanoma
[45] = system: SK-OV-3 ovarian
[46] = system: SN12C renal
[47] = system: SNB-19 CNS
[48] = system: SNB-75 CNS
[49] = system: SR leukemia
[50] = system: SW-620 colon
[51] = system: T-47D breast
[52] = system: TK-10 renal
[53] = system: U251 CNS
[54] = system: UACC-257 melanoma
[55] = system: UACC-62 melanoma
[56] = system: UO-31 renal
[57] = system: LOX IMVI melanoma
[58] = system: SK-MEL-28 melanoma

CC[C@@]1(O)C(=O)OCc2c1cc1n(c2=O)Cc2c-1nc1cc(F)c(C)c3c1c2[C@@H](N)CC3
GI50 [1]: < 0.01 µM | GI50 [2]: < 0.01 µM | TGI [2]: 0.0221 µM | GI50 [3]: < 0.01 µM | TGI [3]: 1.15 µM | GI50 [4]: < 0.01 µM | TGI [4]: 0.026 µM | GI50 [5]: < 0.01 µM | TGI [5]: 0.199 µM | GI50 [6]: < 0.01 µM | TGI [6]: 0.101 µM | GI50 [7]: < 0.01 µM | TGI [7]: > 100 µM | GI50 [8]: 0.0265 µM | TGI [8]: 0.837 µM | GI50 [9]: < 0.01 µM | TGI [9]: > 100 µM | GI50 [10]: 0.0377 µM | TGI [10]: > 100 µM | GI50 [11]: 0.0314 µM | TGI [11]: 0.665 µM | GI50 [12]: < 0.01 µM | TGI [12]: 12.3 µM | GI50 [13]: 0.0215 µM | TGI [13]: > 100 µM | GI50 [14]: < 0.01 µM | GI50 [15]: < 0.01 µM | TGI [15]: 0.159 µM | GI50 [16]: < 0.01 µM | TGI [16]: 0.307 µM | GI50 [17]: 0.735 µM | TGI [17]: > 100 µM | GI50 [18]: < 0.01 µM | TGI [18]: > 100 µM | GI50 [19]: 0.0162 µM | TGI [19]: 1.59 µM | GI50 [20]: < 0.0117 µM | TGI [20]: > 100 µM | GI50 [21]: 0.0203 µM | TGI [21]: 24.7 µM | GI50 [22]: < 0.01 µM | TGI [22]: 0.111 µM | GI50 [23]: < 0.014 µM | TGI [23]: 0.281 µM | GI50 [24]: < 0.01 µM | TGI [24]: > 100 µM | GI50 [25]: 0.162 µM | TGI [25]: > 100 µM | GI50 [26]: 0.015 µM | TGI [26]: 1.48 µM | GI50 [27]: < 0.01 µM | TGI [27]: > 100 µM | GI50 [28]: < 0.01 µM | TGI [28]: 0.0358 µM | GI50 [29]: < 0.01 µM | TGI [29]: 0.0638 µM | GI50 [30]: < 0.01 µM | TGI [30]: > 33.7 µM | GI50 [31]: < 0.01 µM | TGI [31]: 0.531 µM | GI50 [32]: < 0.01 µM | TGI [32]: > 100 µM | GI50 [33]: 0.0339 µM | TGI [33]: 0.907 µM | GI50 [34]: 0.0656 µM | TGI [34]: > 100 µM | GI50 [35]: 0.0201 µM | GI50 [36]: < 0.01 µM | TGI [36]: > 100 µM | GI50 [37]: 0.02 µM | TGI [37]: > 100 µM | GI50 [38]: 0.0109 µM | TGI [38]: 1.58 µM | GI50 [39]: < 0.01 µM | TGI [39]: 0.0254 µM | GI50 [40]: < 0.01 µM | TGI [40]: 2.17 µM | GI50 [41]: < 0.01 µM | TGI [41]: 0.0915 µM | GI50 [42]: < 0.01 µM | TGI [42]: 0.0187 µM | GI50 [43]: 0.138 µM | TGI [43]: 1.4 µM | GI50 [44]: < 0.01 µM | TGI [44]: 0.0203 µM | GI50 [45]: < 0.01 µM | TGI [45]: 1.41 µM | GI50 [46]: < 0.01 µM | TGI [46]: > 100 µM | GI50 [47]: < 0.01 µM | TGI [47]: > 100 µM | GI50 [48]: < 0.0137 µM | TGI [48]: 0.101 µM | GI50 [49]: < 0.01 µM | TGI [49]: > 100 µM | GI50 [50]: < 0.01 µM | TGI [50]: > 100 µM | GI50 [51]: < 0.01 µM | TGI [51]: > 100 µM | GI50 [52]: 0.0725 µM | GI50 [53]: < 0.01 µM | TGI [53]: > 100 µM | GI50 [54]: < 0.0151 µM | TGI [54]: 0.981 µM | GI50 [55]: < 0.01 µM | TGI [55]: 0.0208 µM | GI50 [56]: < 0.01 µM | TGI [56]: 0.108 µM

Clc1ccc(Cl)c(SCCCN2CCNCC2)c1
TGI [1]: 52.1 µM | TGI [2]: 28.2 µM | TGI [3]: 44.4 µM | TGI [4]: 31.1 µM | TGI [5]: 33.6 µM | TGI [6]: 41.8 µM | TGI [7]: 50.5 µM | TGI [8]: 38.4 µM | TGI [9]: 36 µM | TGI [10]: 34.7 µM | TGI [11]: 12.8 µM | TGI [12]: 41.5 µM | TGI [13]: 40.7 µM | TGI [14]: 40.3 µM | TGI [15]: 41.7 µM | TGI [16]: 32.6 µM | TGI [17]: 35.9 µM | TGI [18]: 37.7 µM | TGI [19]: 42.2 µM | TGI [20]: 39.9 µM | TGI [21]: 86.1 µM | TGI [57]: 35.8 µM | TGI [22]: 35.3 µM | TGI [23]: 31.8 µM | TGI [24]: 40 µM | TGI [25]: 31.7 µM | TGI [26]: 41.4 µM | TGI [27]: 40.6 µM | TGI [28]: 43.4 µM | TGI [29]: 39.8 µM | TGI [30]: 42.1 µM | TGI [31]: 34 µM | TGI [32]: 36.2 µM | TGI [33]: 47.4 µM | TGI [34]: 47.9 µM | TGI [35]: 32.5 µM | TGI [36]: 46 µM | TGI [37]: 29.7 µM | TGI [38]: 48.6 µM | TGI [39]: 32.4 µM | TGI [40]: 33.9 µM | TGI [41]: 37.1 µM | TGI [42]: 51.4 µM | TGI [58]: 26.9 µM | TGI [44]: 33.1 µM | TGI [45]: 32 µM | TGI [46]: 37.8 µM | TGI [47]: 34.4 µM | TGI [48]: 35.3 µM | TGI [50]: 56.7 µM | TGI [51]: 58.1 µM | TGI [52]: 31.4 µM | TGI [53]: 34.6 µM | TGI [54]: 26.5 µM | TGI [55]: 7.85 µM | TGI [56]: 30.1 µM

— PubChem BioAssay (NCI)
